How the values were obtained:
[1] = test system: pigweed; assay: Test B pre-/postemergence herbicide test; type: in vivo, Amaranthus retroflexus
In short: (§1)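 Herbicidal effect was judged by eye on a 0–100 scale after plants stood 13 to 15 days in the greenhouse following pre- or postemergence treatment with surfactant-containing formulations.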

[2] = test system: cocklebur; assay: Test B pre-/postemergence herbicide test; type: in vivo, Xanthium strumarium
In short: (§2)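 Evaluation is visual, comparing treated with control plants on a scale where 0 means no effect and 100 means full control. Treatments were preemergence, or postemergence on seedlings 2–18 cm tall, and held 13–15 days in the greenhouse.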

[3] = test system: Surinam grass; assay: Test B pre-/postemergence herbicide test; type: in vivo, Urochloa decumbens
In short: as §1

[4] = test system: barnyardgrass; assay: Test B pre-/postemergence herbicide test; type: in vivo, Echinochloa crus-galli
In short: as §2

[5] = test system: wild oat; assay: Test B postemergence herbicide test; type: in vivo, Avena fatua
In short: (§3)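 Read-out: visual comparison with controls, scored 0 to 100, where 100 means complete control and 0 no effect. Formulated chemicals were applied postemergence to plants 2–18 cm tall (1- to 4-leaf), or to flooded-paddy plants at the 2-leaf stage, then held 13 to 15 days under glass.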

[6] = test system: lambsquarters; assay: Test B pre-/postemergence herbicide test; type: in vivo, Chenopodium album
In short: as §1

[7] = test system: ducksalad; assay: Test B flooded paddy test; type: in vivo, Heteranthera limosa; conditions: 1000 g ai/ha, scale 0 to 100 (0 no effect, 100 complete control)
In short: (§4)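 Each value is a visual 0–100 response rating taken against controls 13 to 15 days after treatment in the greenhouse. Plants received formulated chemical postemergence at the 1- to 4-leaf stage or, in flooded paddy, at the 2-leaf stage.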

[8] = test system: rice; assay: Test B flooded paddy test; type: in vivo, Oryza sativa; conditions: 1000 g ai/ha, scale 0 to 100 (0 no effect, 100 complete control)
In short: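 Treated at 2-leaf (paddy) or 1–4-leaf, 2–18 cm (postemergence); greenhouse 13–15 d; visual score vs control, 0 none to 100 complete control; dash = not tested.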

[9] = test system: barnyardgrass; assay: Test B flooded paddy test; type: in vivo, Echinochloa crus-galli; conditions: 1000 g ai/ha, scale 0 to 100 (0 no effect, 100 complete control)
In short: as §4

[10] = test system: morningglory; assay: Test B pre-/postemergence herbicide test; type: in vivo, Ipomoea coccinea
In short: as §2

[11] = test system: wheat; assay: Test B postemergence herbicide test; type: in vivo, Triticum aestivum; design: key to Wheat plant response rating: 0 = no effect, 100 = complete control
In short: as §3

[12] = test system: blackgrass; assay: Test B postemergence herbicide test; type: in vivo, Alopecurus myosuroides
In short: as §4

[13] = test system: large crabgrass; assay: Test B pre-/postemergence herbicide test; type: in vivo, Digitaria sanguinalis
In short: as §1

[14] = test system: corn; assay: Test B pre-/postemergence herbicide test; type: in vivo, Zea mays
In short: as §1

[15] = test system: small flower umbrella sedge; assay: Test B flooded paddy test; type: in vivo, Cyperus difformis; conditions: 1000 g ai/ha, scale 0 to 100 (0 no effect, 100 complete control)
In short: as §4

[16] = test system: giant foxtail; assay: Test B pre-/postemergence herbicide test; type: in vivo, Setaria faberi
In short: as §1

[17] = test system: rice; assay: Test B pre-/postemergence herbicide test; type: in vivo, Oryza sativa; conditions: preemergence; for Plant response rating, Rice: 500 g ai/ha
In short: as §1

[18] = test system: velvetleaf; assay: Test B pre-/postemergence herbicide test; type: in vivo, Abutilon theophrasti
In short: as §1

[19] = 125 g ai/ha; 0 is no effect, 100 is complete control; preemergence
[20] = 125 g ai/ha; visual rating, scale 0 (no effect) to 100 (complete control); postemergence
[21] = 500 g ai/ha; visual rating, 0 = no effect, 100 = complete control; preemergence
[22] = postemergence, 500 g ai/ha; scale 0 to 100, 0 is no effect, 100 is complete control
[23] = visual rating, 0 = no effect, 100 = complete control
[24] = 125 g ai/ha; 0 = no effect, 100 = complete control; preemergence
[25] = postemergence, 125 g ai/ha; visual rating, scale 0 (no effect) to 100 (complete control)
[26] = postemergence, 500 g ai/ha; visual rating, scale 0 (no effect) to 100 (complete control)
[27] = 125 g ai/ha, 0 = no effect, 100 = complete control
[28] = 500 g ai/ha; visual rating 0-100, 0 no effect, 100 complete control; preemergence

CCNC(=O)c1cccc(NC(=O)c2cc(C(C)(C)C)n[nH]2)c1 [Compound 351]
Plant response rating (0 to 100 scale), Pigweed [1, 19]: 0 | Pigweed plant response rating [1, 20]: 0 | Plant response rating, Pigweed [1, 21]: 0 | Pigweed plant response rating [1, 22]: 50 | Plant response rating (0 to 100 scale), Cocklebur [2, 19]: 0 | Cocklebur plant response rating [2, 20]: 0 | Plant response rating, Cocklebur [2, 21]: 0 | Cocklebur plant response rating [2, 22]: 0 | Plant response rating (0 to 100 scale), Surinam Grass [3, 19]: 0 | Surinam Grass plant response rating [3, 20]: 0 | Plant response rating, Surinam Grass [3, 21]: 0 | Surinam Grass plant response rating [3, 22]: 0 | Plant response rating (0 to 100 scale), Barnyardgrass [4, 19]: 0 | Barnyardgrass plant response rating [4, 20]: 0 | Plant response rating, Barnyardgrass [4, 21]: 0 | Barnyardgrass plant response rating [4, 22]: 0 | Oat, Wild plant response rating [5, 20]: 0 | Oat, Wild plant response rating [5, 22]: 0 | Plant response rating (0 to 100 scale), Lambsquarters [6, 19]: 0 | Lambsquarters plant response rating [6, 20]: 0 | Plant response rating, Lambsquarters [6, 21]: 0 | Lambsquarters plant response rating [6, 22]: 10 | Ducksalad plant response rating [7]: 0 | Rice plant response rating [8]: 0 | Barnyardgrass plant response rating [9]: 0 | Plant response rating (0 to 100 scale), Morningglory [10, 19]: 0 | Morningglory plant response rating [10, 20]: 0 | Plant response rating, Morningglory [10, 21]: 0 | Morningglory plant response rating [10, 22]: 0 | Wheat plant response rating [11, 20]: 0 | Wheat plant response rating [11, 22]: 0 | Blackgrass plant response rating [12, 20]: 0 | Blackgrass plant response rating [12, 22]: 0 | Plant response rating (0 to 100 scale), Crabgrass, Large [13, 19]: 0 | Crabgrass, Large plant response rating [13, 20]: 0 | Plant response rating, Crabgrass, Large [13, 21]: 0 | Crabgrass, Large plant response rating [13, 22]: 10 | Plant response rating (0 to 100 scale), Corn [14, 19]: 0 | Corn plant response rating [14, 20]: 0 | Plant response rating, Corn [14, 21]: 0 | Corn plant response rating [14, 22]: 10 | Sedge, Umbrella plant response rating [15]: 0 | Plant response rating (0 to 100 scale), Foxtail, Giant [16, 19]: 0 | Foxtail, Giant plant response rating [16, 20]: 0 | Plant response rating, Foxtail, Giant [16, 21]: 0 | Foxtail, Giant plant response rating [16, 22]: 0 | Plant response rating (0 to 100 scale), Rice ([17]; 125 g ai/ha, 0 is no effect, 100 is complete control): 0 | Plant response rating, Rice [17, 23]: 0 | Plant response rating (0 to 100 scale), Velvetleaf [18, 19]: 0 | Velvetleaf plant response rating [18, 20]: 0 | Velvetleaf plant response rating [18, 22]: 0

CCn1nc(C(C)(C)C)cc1C(=O)Nc1nc(C(=O)OC)ccc1OC [Compound 265]
Pigweed plant response rating (0 to 100 scale) [1, 24]: 0 | Plant response rating, Pigweed [1, 21]: 0 | Pigweed plant response rating [1, 25]: 0 | Pigweed plant response rating [1, 22]: 20 | Cocklebur plant response rating (0 to 100 scale) [2, 24]: 0 | Plant response rating, Cocklebur [2, 21]: 0 | Cocklebur plant response rating [2, 25]: 0 | Cocklebur plant response rating [2, 26]: 0 | Surinam Grass plant response rating (0 to 100 scale) [3, 24]: 0 | Plant response rating, Surinam Grass [3, 21]: 40 | Surinam Grass plant response rating [3, 25]: 0 | Surinam Grass plant response rating [3, 22]: 0 | Barnyardgrass plant response rating (0 to 100 scale) [4, 24]: 0 | Plant response rating, Barnyardgrass [4, 21]: 0 | Barnyardgrass plant response rating [4, 25]: 0 | Barnyardgrass plant response rating [4, 26]: 0 | Oat, Wild plant response rating [5, 25]: 0 | Oat, Wild plant response rating [5, 22]: 10 | Plant response rating, Lambsquarters [6, 21]: 0 | Lambsquarters plant response rating [6, 25]: 0 | Lambsquarters plant response rating [6, 22]: 0 | Ducksalad plant response rating [7]: 0 | Rice plant response rating [8]: 0 | Barnyardgrass plant response rating [9]: 0 | Morningglory plant response rating (0 to 100 scale) [10, 24]: 0 | Plant response rating, Morningglory [10, 21]: 0 | Morningglory plant response rating [10, 25]: 0 | Morningglory plant response rating [10, 22]: 10 | Wheat plant response rating [11, 25]: 0 | Wheat plant response rating [11, 22]: 10 | Blackgrass plant response rating [12, 25]: 0 | Blackgrass plant response rating [12, 26]: 10 | Crabgrass, Large plant response rating [13, 25]: 0 | Crabgrass, Large plant response rating [13, 22]: 0 | Corn plant response rating (0 to 100 scale) [14, 24]: 0 | Plant response rating, Corn [14, 21]: 0 | Corn plant response rating [14, 25]: 0 | Corn plant response rating [14, 22]: 10 | Sedge, Umbrella plant response rating [15]: 0 | Foxtail, Giant plant response rating (0 to 100 scale) [16, 24]: 0 | Plant response rating, Foxtail, Giant [16, 21]: 50 | Foxtail, Giant plant response rating [16, 25]: 0 | Foxtail, Giant plant response rating [16, 22]: 0 | Rice plant response rating (0 to 100 scale) [17, 27]: 0 | Plant response rating, Rice [17, 23]: 0 | Velvetleaf plant response rating (0 to 100 scale) [18, 24]: 0 | Plant response rating, Velvetleaf [18, 21]: 10 | Velvetleaf plant response rating [18, 25]: 0 | Velvetleaf plant response rating [18, 22]: 10

CCN(CC)C(=O)c1cccc(NC(=O)c2cn(C(C)(C)C)nc2C)c1 [Compound 184]
Pigweed plant response rating (0 to 100 scale) [1, 24]: 100 | Plant response rating, Pigweed [1, 28]: 100 | Pigweed plant response rating [1, 25]: 20 | Pigweed plant response rating [1, 26]: 60 | Cocklebur plant response rating (0 to 100 scale) [2, 24]: 0 | Plant response rating, Cocklebur [2, 28]: 0 | Cocklebur plant response rating [2, 25]: 30 | Cocklebur plant response rating [2, 26]: 60 | Surinam Grass plant response rating (0 to 100 scale) [3, 24]: 0 | Plant response rating, Surinam Grass [3, 28]: 30 | Surinam Grass plant response rating [3, 25]: 10 | Surinam Grass plant response rating [3, 26]: 20 | Barnyardgrass plant response rating (0 to 100 scale) [4, 24]: 0 | Plant response rating, Barnyardgrass [4, 28]: 60 | Barnyardgrass plant response rating [4, 25]: 0 | Barnyardgrass plant response rating [4, 26]: 0 | Oat, Wild plant response rating [5, 25]: 20 | Oat, Wild plant response rating [5, 26]: 30 | Lambsquarters plant response rating (0 to 100 scale) [6, 24]: 50 | Plant response rating, Lambsquarters [6, 28]: 80 | Lambsquarters plant response rating [6, 25]: 60 | Lambsquarters plant response rating [6, 26]: 70 | Ducksalad plant response rating ([7]; visual rating, 13 to 15 days): 0 | Rice plant response rating ([8]; visual rating, 13 to 15 days): 0 | Barnyardgrass plant response rating ([9]; visual rating, 13 to 15 days): 0 | Morningglory plant response rating (0 to 100 scale) [10, 24]: 10 | Plant response rating, Morningglory [10, 28]: 50 | Morningglory plant response rating [10, 25]: 0 | Morningglory plant response rating [10, 26]: 60 | Wheat plant response rating [11, 25]: 0 | Wheat plant response rating [11, 26]: 0 | Blackgrass plant response rating [12, 25]: 0 | Blackgrass plant response rating [12, 26]: 0 | Crabgrass, Large plant response rating (0 to 100 scale) [13, 24]: 30 | Plant response rating, Crabgrass, Large [13, 28]: 100 | Crabgrass, Large plant response rating [13, 25]: 20 | Crabgrass, Large plant response rating [13, 26]: 30 | Corn plant response rating (0 to 100 scale) [14, 24]: 0 | Plant response rating, Corn [14, 28]: 0 | Corn plant response rating [14, 25]: 20 | Corn plant response rating [14, 26]: 30 | Sedge, Umbrella plant response rating ([15]; visual rating, 13 to 15 days): 30 | Foxtail, Giant plant response rating (0 to 100 scale) [16, 24]: 0 | Plant response rating, Foxtail, Giant [16, 28]: 70 | Foxtail, Giant plant response rating [16, 25]: 30 | Foxtail, Giant plant response rating [16, 26]: 40 | Rice plant response rating (0 to 100 scale) [17, 27]: 0 | Plant response rating, Rice ([17]; visual rating 0-100, 0 no effect, 100 complete control): 0 | Velvetleaf plant response rating (0 to 100 scale) [18, 24]: 10 | Plant response rating, Velvetleaf [18, 28]: 50 | Velvetleaf plant response rating [18, 25]: 30 | Velvetleaf plant response rating [18, 26]: 60

— US20060069132A1, “Azolecarboxamide herbicides” (priority 2004, published 2006)
